Eight molecules from US20250289785A1, “INDOLE DERIVATIVE, METHOD FOR PREPARING SAME, AND USE THEREOF” (MITOIMMUNE THERAPEUTICS INC., priority 2021, published 2025) can be followed below.

One data set deals with H9C2 cells. The data set can be described thus: Cell protection effect against t-BHP in heart cells (LDH release). The format is cell-based. As to conditions: H9C2, t-BHP 40 μM, 2 hours. How it is done:
In order to identify the protective effect with regard to heart cells, H9C2 cells were divided into 96-well plates by 1.5×10^4, and cultured for 24 hours. The respective wells were treated with compounds of the examples 3× serial diluted to final concentrations of […], then cultured for 15 to 20 minutes. After treating with t-BHP with a final concentration of 40 μM, culturing was performed for 2 hours. In order to identify the protective effect of each compound, a Cytotoxicity LDH assay kit [Dojindo; CK12] was used to measure the degree of extracellular secretion of LDH. To describe briefly, at the time point 2-hour treatment of the cells with t-BHIP was completed, 100 μL each of the supernatant in which the cells were placed was collected and moved to a new 96-well plate. 100 μL/well of the assay buffer included in the kit (same amount as the sample) was added, followed by wrapping with foil and reacting for 30 minutes at room temperature. Observing the change in color of the sample, 50 μL/well of stop solution was added, then an iD3 spectrometer was used to measure absorbance at 490 nm and calculate the EC50 values. The EC50 of the compounds of the examples is preferably no more than 1.0 μM, and more preferably no more than 0.3 μM.
`CCOCc1cc(NC2CCOCC2)c2[nH]c(-c3ccccc3)c(-c3nccn3C(=O)OCC)c2c1` [Example 44, ethyl 2-(5-(ethoxymethyl)-2-phenyl-7-((tetrahydro-2H-pyran-4-yl)amino)-1H-indol-3-yl)-1H-imidazole-1-carboxylate] gave an EC50 above 1000 nM.
The molecule `CCOCc1cc(NC2CCCC2)c2[nH]c(-c3ccccc3)c(-c3ncc[nH]3)c2c1` [Example 45, N-cyclopentyl-5-(ethoxymethyl)-3-(1H-imidazol-2-yl)-2-phenyl-1H-indol-7-amine] showed an EC50 of 300 to 1000 nM.
The same measure, in the same setting: under `CCCOCc1cc(NC2CCOCC2)c2[nH]c(-c3ccccc3)cc2c1` [Example 47, 2-phenyl-5-(propoxymethyl)-N-(tetrahydro-2H-pyran-4-yl)-1H-indol-7-amine] stands at most 300 nM; under `c1ccc(-c2cc3cc(COCC4CC4)cc(NC4CCOCC4)c3[nH]2)cc1` [Example 48, 5-((cyclopropylmethoxy)methyl)-2-phenyl-N-(tetrahydro-2H-pyran-4-yl)-1H-indol-7-amine], at most 300 nM.
On the same count and under the same terms, under `CCOCc1cc(NCC2CCOCC2)c2[nH]c(-c3ccccc3)cc2c1` [Example 49, 5-(ethoxymethyl)-2-phenyl-N-((tetrahydro-2H-pyran-4-yl)methyl)-1H-indol-7-amine] stands at most 300 nM.
Molecule `COCCCc1cc(NC2CCOCC2)c2[nH]c(-c3ccccc3)cc2c1` [Example 50, 5-(3-methoxypropyl)-2-phenyl-N-(tetrahydro-2H-pyran-4-yl)-1H-indol-7-amine] had a concentration for a half-maximal effect (EC50) of at most 300 nM.
Same read-out and setting: under `CCOCCCc1cc(NC2CCOCC2)c2[nH]c(-c3ccccc3)cc2c1` [Example 51, 5-(3-ethoxypropyl)-2-phenyl-N-(tetrahydro-2H-pyran-4-yl)-1H-indol-7-amine] stands at most 300 nM.

Test system in a further data set: not listed separately
The data set can be described thus: Plasma and brain concentration after oral administration to ICR mice (HPLC-MS/MS). The format is in vivo. As to conditions: ICR mouse, 10 mg/kg, 2 hours after administration. Here is the method: […] parameters can be represented as maximum concentration in plasma (Cmax), time taken until maximum concentration in plasma (Tmax), area under the plasma concentration-time curve (AUClast and AUCinf), and half-life (t1/2), and the like.
The compound of example 2 was orally administered to ICR mice at a dose of 10 mg/kg, and drug concentration in mouse plasma was measured using HPLC-MS/MS spectroscopy at 0.5, 1, 2, 4, 8 and 24 hours. The mouse brains were removed at 2 or 24 hours, and drug concentration in the brain was measured using HPLC-MS/MS spectroscopy. The area under the plasma concentration v. time curve (AUCinf) was measured to be […], and at 2 hours after administration drug concentration in plasma was 546 ng/mL and brain drug concentration was measured at 1043 ng/mL. […] Further, at 24 hours after administration, for Embodiment 2, drug concentration in plasma was measured to be 4.7 ng/mL and drug concentration in the brain was measured at 5.7 ng/mL. With the brain-plasma drug concentration ratio at 1.23, drug exposure in the brain was still high.
The Comparative Example compound was orally administered to ICR mice at a dose of 10 mg/kg, and drug concentration in mouse plasma was measured using HPLC-MS/MS spectroscopy at 0.5, 1, 2, 4, 8 and 24 hours. The mouse brains were removed at 2 or 24 hours, and drug concentration in the brain was measured using HPLC-MS/MS spectroscopy.
With `OCc1cc(NC2CCCC2)c2[nH]c(-c3ccccc3)cc2c1` [Comparative Example, reference compound], the brain drug concentration worked out at 95.1 ng/mL and the “drug concentration in plasma” value is 1122.4 ng/mL.
